The record followed here is patent publication US20070259060A1, “Formulations and Methods for Treating Breast Cancer with Morinda Citrifolia and Methylsulfonymethane” (priority 2003, published 2007).

Series [1] deals with mammary gland tumorigenesis induced by estrogen. Kind of series: E2-induced mammary tumors (Example Four). It is filed as in vivo, female ACI rats. From the text:
FIG. 2 is a graphical representation of the preventative effects of Morinda citrifolia-containing compounds on mammary gland tumorigenesis induced by estrogen in female ACI rats in accordance with the present invention.
Sixty five-week old female rats were divided into four groups of fifteen rats each and placed on regular diets. Another eight female rats served as age-matched controls. One group of experimental rats was given 5% placebo in drinking water, the second experimental group was given 5% Morinda citrifolia juice in drinking water, the third experimental group was given 5% Methylsulfonylmethane (“MSM”) in drinking water, and the fourth experimental group was given a combination of 5% Morinda citrifolia juice and 5% MSM in drinking water. Two weeks later, all animals were implanted subcutaneously with a 25 mg pellet containing 22.5 mg of 17β-estradiol (E2) mixed with 2.5 mg cholesterol. Each experimental group was provided with its respective formulation for ninety days following estrogen (E2) implantation. The age-matched control animals received a 25 mg cholesterol pellet implant.
All rats with an E2 implant in the placebo group had mammary gland tumors. One hundred percent (100%) of the rats in this group had three to seven tumors. Seventy-one percent (71%) of the rats in the Morinda citrifolia group had two to five tumors. Fifty-seven percent (57%) of the rats in the MSM group had one to four tumors. Forty-three percent (43%) of the rats in the combination group had zero to three tumors.
The average tumor area in the placebo group, Morinda citrifolia group, MSM group, and combination group at 180 days after E2 implantation were 17, 12, 10 and 6 mm^2, respectively. The survival rates of the control, placebo, Morinda citrifolia, MSM and combination groups one hundred and sixty days after E2 implantation were 100%, 0%, 47%, 73%, and 87%, respectively. The survival rates of each group at one hundred eighty days after E2 implantation was 100%, 0%, 0%, 20% and 60%, respectively. At two hundred days, the survival rates of each group were 100%, 0%, 0%, 0%, and 27%, respectively.

The test system of series [2] is mammary carcinogenesis induced by DMBA. Kind of series: DMBA-induced mammary carcinogenesis, Morinda citrifolia/MSM combination (Example Five). The format is in vivo, female SD rats. From the text:
In research supporting the present invention, the cancer preventive effects of Morinda citrifolia, MSM, and their combination at the initiation stage of multiple stage chemical carcinogenesis was investigated on a mammary breast carcinogenic animal model induced by DMBA in female SD rats. In the experiment, seventy-five female SD rats were divided into five groups: age-matched control, DMBA, 5% Morinda citrifolia+DMBA, 5% MSM+DMBA, and 5% Morinda citrifolia+5% MSM+DMBA groups. The experiment was started at the 35th postnatal day with water being given to the age-matched control group and the DMBA group, while 5% Morinda citrifolia, 5% MSM, and 5% Morinda citrifolia+5% MSM was supplied to the Morinda citrifolia, MSM, and Morinda citrifolia+MSM+DMBA groups. DMBA (25 mg/kg) was administered by mouth at the 50th postnatal day in the DMBA, Morinda citrifolia+DMBA, MSM+DMBA, and Morinda citrifolia+MSM+DMBA groups. Morinda citrifolia, MSM, Morinda citrifolia+MSM were continuously supplied for an additional 90 days after DMBA administration. All animals were sacrificed at the 9th month after DMBA treatment to examine the pathological changes in the mammary glands by light microscopy. […] Therefore, this synergistic combination regimen may contribute to human breast cancer prevention at the initiation stage of carcinogenesis. […]

[3] abbreviates: 5% in drinking water from two weeks before to ninety days after E2 implantation.

Each structure is given as a SMILES string.

In the case of `CS(C)(=O)=O` [MSM, methylsulfonylmethane], in series [1] (setting [3]), the “number of tumors per rat” value was “one to four”. Besides, the “percent of the rats with mammary tumors” value in series [1] (setting [3]) worked out at 57%. For the same compound, the body weight result in series [1] (5% in drinking water, E2 implant) is reported as “slight body weight loss”. The average tumor area in series [1] (180 days after E2 implantation) was 10 mm^2. In addition, the survival rate in series [1] (one hundred and sixty days after E2 implantation) is given as 73%; in series [1] (one hundred eighty days after E2 implantation), 20%; in series [1] (two hundred days after E2 implantation), 0%. In addition, the mild hyperplasia in series [2] (5% each, sacrificed 9th month after DMBA) is 75%. In addition, in series [2] (5% from 35th postnatal day until 90 days after DMBA 25 mg/kg by mouth, sacrificed 9th month), the “benign tumor or carcinoma in mammary glands by light microscopy” value was “No benign tumor or carcinoma was observed”.
